Results reported in the supplement of paper PMC10307832.

How the values were obtained:
Assay in all cases: relative viability (nuclei count vs DMSO), 5 days (fraction); higher = more cells survive
Shikonin + Dasatinib = compound: CC(C)=CC[C@@H](O)C1=CC(=O)c2c(O)ccc(O)c2C1=O [Shikonin] + Cc1nc(Nc2ncc(C(=O)Nc3c(C)cccc3Cl)s2)cc(N2CCN(CCO)CC2)n1 [Dasatinib] (partner 0.075 µM)
Method in brief: (§1)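 The day after seeding in 1536-well plates, lung cancer cell lines were treated by pin tool with a single drug, or with a fixed anchor-drug dose together with five library-drug doses (not always all listed) in √10 steps. After 5 days, a combined fix-and-stain solution (final 0.05% Triton X-100, 1% formaldehyde, 1 ug/ml Hoechst) was added. Nuclei counted on 4× images gave relative viability as treated counts over vehicle counts, reported as the median of duplicate plates.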

[1] = compound: CC(C)N(CCCNC(=O)Nc1ccc(C(C)(C)C)cc1)C[C@H]1O[C@@H](n2ccc3c(N)ncnc32)[C@H](O)[C@@H]1O + COc1cccc2cc(-c3nc([C@H]4CC[C@H](C(=O)O)CC4)n4ncnc(N)c34)[nH]c12 [OSI-027] (partner 0.5 µM)
Method in brief: as §1

[2] = compound: CC(C)N(CCCNC(=O)Nc1ccc(C(C)(C)C)cc1)C[C@H]1O[C@@H](n2ccc3c(N)ncnc32)[C@H](O)[C@@H]1O + Cc1nc(NC(=O)N2CCC[C@H]2C(N)=O)sc1-c1ccnc(C(C)(C)C(F)(F)F)c1 [Alpelisib] (partner 2 µM)
Method in brief: as §1

[3] = compound: CC(C)N(CCCNC(=O)Nc1ccc(C(C)(C)C)cc1)C[C@H]1O[C@@H](n2ccc3c(N)ncnc32)[C@H](O)[C@@H]1O + O=C(CCCCCCC(=O)Nc1ccccc1)NO [Vorinostat] (partner 1 µM)
Method in brief: as §1

| Cell Line | relative viability (Shikonin + Dasatinib; first compound 0.01 µM) | relative viability (Shikonin + Dasatinib; first compound 0.1 µM) | relative viability (Shikonin + Dasatinib; first compound 0.3162 µM) | relative viability (Shikonin + Dasatinib; first compound 1 µM) | relative viability ([1]; first compound 0.08 µM) | relative viability ([1]; first compound 0.253 µM) | relative viability ([1]; first compound 0.8 µM) | relative viability ([1]; first compound 2.53 µM) | relative viability ([1]; first compound 8 µM) | relative viability ([2]; first compound 0.08 µM) | relative viability ([2]; first compound 0.253 µM) | relative viability ([2]; first compound 0.8 µM) | relative viability ([2]; first compound 2.53 µM) | relative viability ([2]; first compound 8 µM) | relative viability ([3]; first compound 0.08 µM) | relative viability ([3]; first compound 0.253 µM) | relative viability ([3]; first compound 0.8 µM) | relative viability ([3]; first compound 2.53 µM) | relative viability ([3]; first compound 8 µM) |
| --- | --- | --- | --- | --- | --- | --- | --- | --- | --- | --- | --- | --- | --- | --- | --- | --- | --- | --- | --- |
| SW 1573 | 0.591 | 0.546 | 0.444 | 0.144 | 0.501 | 0.679 | 0.635 | 0.683 | 0.705 | 0.771 | 0.708 | 0.734 | 0.949 | 0.667 | 0.596 | 0.666 | 0.648 | 0.893 | 0.886 |
| NCI-H1650 | 0.299 | 0.336 | 0.267 | 0.21 | 0.567 | 0.696 |  | 0.744 | 0.703 |  |  |  |  |  | 0.451 | 0.608 | 0.485 | 0.474 | 0.444 |
| BEN | 0.302 | 0.407 | 0.303 | 0.386 | 0.301 | 0.277 | 0.298 | 0.294 | 0.275 | 0.909 | 0.93 | 0.953 | 0.913 | 0.989 | 0.597 | 0.539 | 0.576 | 0.606 | 0.572 |
| EMC-BAC-2 | 0.301 | 0.322 | 0.375 | 0.298 | 0.384 | 0.485 | 0.42 | 0.412 | 0.355 | 0.654 | 0.753 | 0.722 | 0.721 | 0.706 | 0.465 | 0.416 | 0.461 | 0.409 | 0.401 |
| LU99A | 0.52 | 0.756 | 0.594 | 0.663 | 0.317 | 0.327 | 0.329 | 0.377 | 0.254 | 0.477 | 0.445 | 0.54 | 0.555 | 0.503 | 0.454 | 0.342 | 0.483 | 0.539 | 0.409 |
| ABC-1 | 0.603 | 0.685 | 0.552 | 0.301 | 0.497 | 0.588 |  | 0.565 | 0.529 | 0.989 | 1.2 |  | 1.12 | 1.07 | 1.19 | 1.29 |  | 1.07 | 0.919 |
| NCI-H2170 | 0.611 | 0.465 | 0.651 | 0.54 | 0.675 | 0.7 | 0.669 | 0.709 | 0.748 | 0.736 | 0.762 | 0.82 | 0.815 | 0.908 | 0.811 | 0.681 | 0.807 | 0.83 | 0.688 |
| NCI-H1299 |  |  |  |  |  |  |  |  |  | 1.03 | 1.03 | 1.07 | 1.02 | 1.04 |  |  |  |  |  |
| EBC-1 |  |  |  |  |  |  |  |  |  | 0.749 | 0.825 | 0.739 | 0.848 | 0.704 |  |  |  |  |  |
| NCI-H2405 | 0.206 | 0.235 | 0.256 | 0.256 | 0.626 | 0.678 | 0.684 | 0.668 | 0.592 | 0.858 |  | 0.789 | 0.89 | 0.795 | 1.06 | 0.969 | 0.928 | 1.07 | 0.92 |
